Data on eleven compounds can be found in patent publication US10392385B2, “N-((1-phenyl-9H-pyrido[3,4-b]indol-3-yl)methyl)cinnamamides as potential anticancer agents and preparation thereof” (Council of Scientific & Industrial Research, priority 2016, dated 2019).

One data set relates to A549. Particulars: lung cancer; 48 h of drug treatment; average of three experiments; cited from earlier work.
For another data set, the system named is MCF-7. Particulars: breast cancer; 48 h of drug treatment; average of three experiments; cited from earlier work.
A further data set has as its system HeLa. The following applies: cervical cancer; 48 h of drug treatment; average of three experiments; cited from earlier work.
The subject of a further data set is A549 (lung cancer). Put plainly: MTT cytotoxicity assay, A549. The following applies: Homo sapiens, 48 h of drug treatment (footnote), average of three experiments. Format: cell-based. The source says: (§1) The N-((1-phenyl-9H-pyrido[3,4-b]indol-3-yl)methyl)cinnamamides (1a-h, 2a-h and 3a-h) have been tested against five human cancer cell lines such as A549 (lung cancer), MCF-7 (breast cancer), B16 (melanoma), HeLa (cervical cancer) and NIH3T3 (mouse embryonic fibroblast cancer). All the cancer cell lines (HeLa, A549, MCF-7 and B16) were procured from National Centre for Cell Sciences (NCCS, Pune, India) and NIH 3T3 cell line was obtained from American Type Culture Collection (Rockville, Md., USA). Stock cells were cultured in DMEM supplemented with 10% Fetal Bovine Serum (FBS), in an humidified atmosphere of 5% CO2 at 37° C. until they are 80% confluent. To study the cytotoxicity of the compounds, after 80% confluence, cells were trypsinized with 0.1% trypsin-EDTA and harvested by centrifugation at 500×g. Serial dilutions of cells were made from 1×10^6 to 1×10^3 cells per mL The cells were seeded in triplicate in a 96 well plate. The cells were seeded in triplicate in a 96 well plate. […] The cell viability was determined by measuring the ability of cells to transform MTT to a purple coloured formazan dye. The absorbance of samples at 570 nm was measured using a UV-Visible spectrophotometer. Percentage of viable cells was calculated by using the formula given below.
(§2) Where the OD570 (sample) corresponds to absorbance obtained from the wells treated with compound and OD570 (control) represents the absorbance from the wells in which no compound was added.
For orientation: Formazan colour is commonly taken as a measure of viable cells.

The test system of the next data set is MCF-7 (breast cancer). Kind of data set: MTT cytotoxicity assay, MCF-7. In kind it is cell-based. Particulars: Homo sapiens, MCF7, average of three experiments.
Source text: as §1
(§3) Where the OD570 (sample) corresponds to absorbance obtained from the wells treated with compound and OD570 (control) represents the absorbance from the wells in which no compound was added. For these compounds results are expressed as half maximal inhibitory concentration (IC50) values and the anticancer activity data of 1a-h, 2a-h and 3a-h are shown in Table 2.

The next data set concerns B16 (melanoma). Put plainly: MTT cytotoxicity assay, B16. Format: cell-based. The following applies: 48 h of drug treatment (footnote), average of three experiments.
Source text: as §1, §3

For the next data set, the system named is HeLa (cervical cancer). Kind of data set: MTT cytotoxicity assay, HeLa. The following applies: Homo sapiens, of drug treatment (footnote), average of three experiments. Format: cell-based.
Source text: as §1, §3

For data set [1], the system named is NIH3T3 (mouse embryonic fibroblast cell line). Put plainly: MTT cytotoxicity assay, NIH3T3. Format: cell-based. The following applies: 48 h of drug treatment (footnote), average of three experiments.
Source text: as §1, §3

Data set [2] deals with A549, MCF-7, B16, HeLa and NIH3T3 cell lines. Put plainly: MTT cytotoxicity assay, all the cell lines tested. In kind it is cell-based. The following applies: summary over A549, MCF-7, B16, HeLa, read-out: IC50 against all the cell lines tested.
Source text: as §1, with “500×g.” for “500×g. Serial dilutions of cells were made from 1×10^6 to 1×10^3 cells per mL The cells were seeded in triplicate in a 96 well plate. The cells were seeded in triplicate in a 96 well plate.”
as §2

Usually IC50 stands for the concentration at which inhibition is half-maximal. As to `COc1cc(-c2nc(CN)cc3c2[nH]c2ccccc23)cc(OC)c1OC` [Compound 21b, (1-(3,4,5-trimethoxyphenyl)-9H-pyrido[3,4-b]indol-3-yl)methanamine], the values for the IC50 in the data set with A549, with MCF-7 and in the data set on HeLa were 15100 nM, 18600 nM and 21700 nM, respectively.

Turning to `COc1ccc(-c2nc(CN)cc3c2[nH]c2ccccc23)cc1` [Compound 21c, (1-(4-methoxyphenyl)-9H-pyrido[3,4-b]indol-3-yl)methanamine], the IC50 is 17800 nM in the data set on A549, 18900 nM in the data set with MCF-7 and 18600 nM in the data set on HeLa.

For the compound `NCc1cc2c([nH]c3ccccc32)c(-c2ccc(C(F)(F)F)cc2)n1` [Compound 21e], the concentration for half-maximal inhibition (IC50) in the data set with A549 is 15800 nM; in the data set on MCF-7 it was 12000 nM; with HeLa, 15800 nM.

A word on the melting point: it is the temperature, or range, at which the solid turns liquid. Consider `COc1ccc(OC)c(/C=C/C(=O)NCc2cc3c([nH]c4ccccc43)c(-c3cccc(F)c3)n2)c1` [Compound 1e, (E)-3-(2,5-dimethoxyphenyl)-N-((1-(3-fluorophenyl)-9H-pyrido[3,4-b]indol-3-yl)methyl)acrylamide], for which the melting point lay in the range of 228 to 230 °C. Moreover, the IC50 in the data set on A549 (lung cancer) is 22.2 ± 1.1 nM. The same compound gave an IC50 in the data set with MCF-7 (breast cancer) of 17.5 ± 0.3 nM. Moreover, in the data set on B16 (melanoma), the half-maximal inhibitory concentration (IC50) was found to be 19.9 ± 0.7 nM. The IC50 in the data set on HeLa (cervical cancer) is 21.87 ± 0.2 nM. This compound returned an IC50 in data set [1] of 39.6 ± 1.8 nM.

For `O=C(/C=C/c1ccc(Cl)c(Cl)c1)NCc1cc2c([nH]c3ccccc32)c(-c2cccc(F)c2)n1` [Compound 1b, (E)-3-(3,4-dichlorophenyl)-N-((1-(3-fluorophenyl)-9H-pyrido[3,4-b]indol-3-yl)methyl)acrylamide], the melting point is 255 to 258 °C. In the data set on A549 (lung cancer), this compound came in with an IC50 of 18 ± 0.8 nM. Further, the IC50 in the data set with MCF-7 (breast cancer) is 17 ± 1.2 nM. The compound also displayed an IC50 with B16 (melanoma) of 18.9 ± 0.4 nM. In the data set on HeLa (cervical cancer), this compound registered an IC50 of 24.9 ± 0.4 nM. The IC50 in [1] is 39 ± 1.1 nM.

`COc1cc(-c2nc(CNC(=O)/C=C/c3ccc(F)cc3)cc3c2[nH]c2ccccc23)cc(OC)c1OC` [Compound 2c, (E)-3-(4-fluorophenyl)-N-((1-(3,4,5-trimethoxyphenyl)-9H-pyrido[3,4-b]indol-3-yl)methyl)acrylamide] showed a melting point of 214 to 218 °C. Moreover, in the data set on A549 (lung cancer), the IC50 was found to be 18.7 ± 0.7 nM. This compound also showed an IC50 in the data set on MCF-7 (breast cancer) of 16.4 ± 0.8 nM. The same compound had an IC50 in the data set on B16 (melanoma) of 17.2 ± 0.3 nM. The same compound yielded a 50% inhibitory concentration (IC50) in the data set on HeLa (cervical cancer) of 20 ± 0.5 nM. In data set [1], this compound showed an IC50 of 43 ± 1.1 nM.

With `O=C(/C=C/c1cccc(O)c1)NCc1cc2c([nH]c3ccccc32)c(-c2cccc(F)c2)n1` [Compound 1h, (E)-N-((1-(3-fluorophenyl)-9H-pyrido[3,4-b]indol-3-yl)methyl)-3-(3-hydroxyphenyl)acrylamide], the melting point is 142 to 148 °C. The compound also returned an IC50 in the data set on A549 (lung cancer) of 23.4 ± 0.8 nM. Further, the half-inhibitory concentration (IC50) in the data set with MCF-7 (breast cancer) came out at 19.2 ± 0.6 nM. In the data set with B16 (melanoma), 24.9 ± 0.5 nM corresponded to half-maximal inhibition (IC50). In addition, in the data set on HeLa (cervical cancer), the IC50 is 27 ± 0.5 nM. This compound also came in with an IC50 in [1] of 35.7 ± 2.2 nM.

On to `COc1cc(/C=C/C(=O)NCc2cc3c([nH]c4ccccc43)c(-c3cccc(F)c3)n2)ccc1O` [Compound 1g, (E)-N-((1-(3-fluorophenyl)-9H-pyrido[3,4-b]indol-3-yl)methyl)-3-(4-hydroxy-3-methoxyphenyl)acrylamide], for which the melting point was in the range of 205 to 210 °C. This compound also gave an IC50 with A549 (lung cancer) of 22.4 ± 1.1 nM. This compound also yielded an IC50 in the data set with MCF-7 (breast cancer) of 17.9 ± 0.7 nM. Besides, in the data set with B16 (melanoma), the IC50 was found to be 19.4 ± 1.1 nM. Further, the 50% inhibitory concentration (IC50) in the data set with HeLa (cervical cancer) is 23.9 ± 0.4 nM. The IC50 in [1] turned out to be 36.9 ± 1.9 nM.

Consider `COc1cccc2c1C(=O)c1c(O)c3c(c(O)c1C2=O)C[C@@](O)(C(=O)CO)C[C@@H]3O[C@H]1C[C@H](N)[C@H](O)[C@H](C)O1` [Doxorubicin, reference compound], for which the IC50 was 580 ± 0.2 nM in the data set on MCF-7 (breast cancer); 670 ± 0.7 nM in the data set on B16 (melanoma); 780 ± 0.5 nM in the data set with HeLa (cervical cancer); 1720 ± 0.8 nM in data set [1]; above 500 nM in [2].

The compound `COc1cc(/C=C/C(=O)NCc2cc3c([nH]c4ccccc43)c(-c3cc(OC)c(OC)c(OC)c3)n2)ccc1O` [Compound 2g, (E)-3-(4-hydroxy-3-methoxyphenyl)-N-((1-(3,4,5-trimethoxyphenyl)-9H-pyrido[3,4-b]indol-3-yl)methyl)acrylamide] had a melting point of 175 to 178 °C. For the same compound, inhibition with A549 (lung cancer) was half-maximal at 18.3 ± 1.4 nM (IC50). In addition, in the data set on MCF-7 (breast cancer), the IC50 is 17.6 ± 0.7 nM. In the data set on B16 (melanoma), this compound returned a 50% inhibitory concentration (IC50) of 19 ± 0.9 nM. This compound also had an IC50 in the data set on HeLa (cervical cancer) of 26 ± 0.3 nM. It took 43.1 ± 1.3 nM to reach half-maximal inhibition in data set [1] (IC50).

The compound `O=C(/C=C/c1ccc(F)cc1)NCc1cc2c([nH]c3ccccc32)c(-c2cccc(F)c2)n1` [Compound 1c, (E)-3-(4-fluorophenyl)-N-((1-(3-fluorophenyl)-9H-pyrido[3,4-b]indol-3-yl)methyl)acrylamide] registered a melting point of 258 to 264 °C. The compound further displayed an IC50 in the data set with A549 (lung cancer) of 16.3 ± 0.3 nM. Further, it took 16.5 ± 1.8 nM to reach half-maximal inhibition with MCF-7 (breast cancer) (IC50). This compound also registered an IC50 with B16 (melanoma) of 16.8 ± 0.8 nM. Moreover, it took 24.3 ± 0.6 nM to reach half-maximal inhibition with HeLa (cervical cancer) (IC50). The compound also displayed a half-maximal inhibitory concentration (IC50) in data set [1] of 30.8 ± 2.1 nM.
